Source: US5763596A, “C-4' modified adenosine kinase inhibitors” (Metabasis Therapeutics, Inc., priority 1996, dated 1998)

Tests used:
adenosine kinase = adenosine kinase (AK) inhibition; type: biochemical, pig heart or recombinant human; conditions: 0.5 μM [U-14C] adenosine, pH 7.0, 20 minutes
Protocol: Adenosine kinase activity was measured essentially as described by Yamada et al. (Yamada, Y., Goto, H., Ogasawara, N. (1988) Biochim. Biophys. Acta 660, 36-43.) with a few minor modifications. […] Natl. Acad. Sci. […] The reactions were incubated for 20 minutes at […] The assay was quenched upon spotting 30 μL aliquots onto 2 cm^2 pieces of Whatman DE81 anion exchange paper. The papersquares were washed for 3 minutes in 6 L distilled/deionized water to remove the unreacted adenosine. The washed squares were rinsed in 95% ethanol and dried in an oven at 100° C. for 10 minutes. The amount of ^14 C-AMP was quantified by scintillation counting.

Rats = experiment: anti-inflammatory activity, carrageenan paw; type: in vivo, rat; conditions: 10 mg/kg, swelling after 3 hours
Protocol: Carrageenan (Type λ) was suspended in sterile PBS at 1% (w/v), autoclaved for 30 minutes, and stored at room temperature. Rats were pretreated with vehicle or AK inhibitor (10 mg/kg) by oral gavage or i.p. administration and the volume of the left hind paw was measured using a water displacement plethysmometer (Stoelting Co., Wood Dale, Ill.). One hour after oral treatment or 30 minutes after i.p. treatment, the rats were briefly anaesthetized, and 0.1 ml of the carrageenan solution was injected subcutaneously into the planar surface of the left hind paw. The ensuing paw swelling was measured by plethysmometry after 3 hours. The paw volume in milliliters was subtracted from the pre-injection paw volume. Data are presented in Table 8 as the percent inhibition of paw swelling in AK inhibitor treated animals, compared to vehicle treated control animals.

male Lewis rats = experiment: adjuvant arthritis; type: in vivo, rat
Protocol: Heat-killed Mycobacterium butyricum was ground to a find powder and suspended in heavy mineral oil at 10 mg/ml. The suspension was injected subcutaneously into the base of the tail of male Lewis rats at 0.1 ml per rat. This immunization procedure induces an agressive arthritis that is apparent at day 10-12 and rapidly worsens. The volumes of the hind paws were measured before immunization and on days 12, 15 and 20 after immunization. The baseline paw volume was subtracted from the arthritic volumes to yield paw swelling. AK inhibitors were given by daily oral gavage beginning on day 4 after immunization, using polyethylene glycol-400 as the vehicle. Control rats received vehicle only. Percent inhibition was calculated based on paw swelling in AK inhibitor treated group compared to vehicle treated group, and is reported in Table 11.

Rats (male, Simonsen) = experiment: formalin paw model; type: in vivo, rat; design: concentration or dose not given beside the values; conditions: oral, 90 min before formalin
Protocol: In this assay, injection of formalin, an irritant, into the hindpaw of rats typically evokes a biphasic response of pain-related behaviors. Phase 1 of the response which is brief, lasting approximately 0-5 min post-injection,is followed by a more prolonged phase 2, lasting approximately 10-80 min post-injection. Phase 1 behavior is thought to be a direct effect of the irritant on nociceptors at the injection site while phase 2 behavior is thought to include a hyperalgesic component mediated by sensitization of neuronal elements within the spinal cord. Studies from other laboratories have found the first portion of Phase 2 (sometimes referred to as Phase 2a) to be most responsive to pharmacological manipulation.
Rats (male, Simonsen) weighing between 100-200 g, are used in the present experiments. For screening purposes drugs are administered orally 90 min prior to initiation of formalin test. At designated intervals the animals in groups of 4 are placed individually in a small animal restrainer with the right hindpaw accessible through a hole in the bottom of the restrainer. The formalin paw assay is initiated by the injection using a 30G needle of 50 μl of a 5% formalin solution in saline into the right plantar surface of each hindpaw. The rat is then immediately placed in a separate plexiglass box and scoring (described below) of the animal's behavior is begun at 1.7 min after formalin injection. The instantaneous behavior of each animal in a group of 4 was observed and assigned a score once in each 20 second interval. This sequence is repeated over a 30 min period. The scoring protocol is an adaptation of the method published by Dubuisson and Dennis (Pain 4:161-174, 1977) which assigns a score from 0-3 as follows:
0--no discernible favoring of injected paw, weight evenly distributed
1--injected paw is favored, rests lightly on floor
2--injected paw is elevated
3--injected paw is vigorously licked, bitten or shake
Scores are continuously recorded directly onto an Excel spreadsheet. […] 2) the total number of incidences specifically of licking/biting behavior is summed over Phase 2 and mean values determined from 6 different animals with results expressed as % inhibition compared to vehicle control.

male SA rats = experiment: anticonvulsant activity, maximal electroshock (MES) model; type: in vivo; conditions: Rattus norvegicus, ip, 1 h before MES; >5 / <5: fewer / more than 50% of animals inhibited at 5 mg/kg in initial screen
Protocol: The anticonvulsant activity of the tested compounds was evaluated in male SA rats (100-150 g, Simonsen) using the maximal electroshock (MES) model described in Swinyard et al., Antiepileptic Drugs, 3d Ed. at 85-102 (Levy, et al., eds.), NY: Raven Press (1989). The rats were maintained on a 12/12 light/dark cycle in temperature controlled facilities with free access to food and water. For p.o. administration, the animals are fasted overnight, prior to the experiment. One hour prior to seizure testing, the animals were injected interperitoneally (ip) or orally (per os, po) with one of various doses of test compound dissolved in DMSO or PEG 400.
Maximal electroshock seizures (MES) were induced by administering a 150 mA, 60 Hz current for 0.2 seconds via corneal electrodes using a Wahlquist Model H stimulator. […] This endpoint was expressed as the percentage of animals in which the response was inhibited. Typically, compounds were screened initially at one hour following a dose of 5 mg/kg ip. […] The results for exemplary compounds of the invention are set forth in Table 8, expressed as ED50 values.

Female SA rats = experiment: liver toxicity, serum SGOT, SGPT and total bilirubin; type: in vivo, rat; design: unit not given here; conditions: 2 x 37.5 μmol/kg i.v. infusion (total 75 μmol/kg), 12 h after second dose
Protocol: Female SA rats (150-200 g) were anesthetized with halothane and cannulated via the internal jugular vein. The animals were allowed to recover for 3 days. […] Twelve hours later, an additional 37.5 μmol kg was infused over 40 minutes (total dose=75 μmol/kg). Twelve hours after the second dose, the animals were anesthetized with halothane and exsanguinated through the descending aorta. Serum was prepared and liver enzymes (serum glutamic-oxaloacetic transaminase (SGOT), serum glutamic-pyruvic transaminase (SGPT)) and total bilirubin in the serum samples were determined by a commercial laboratory.

[1] = 10 mg/kg daily oral gavage from day 4
[2] = 20 mg/kg daily oral gavage from day 4

## O[C@@H]1[C@H](O)CO[C@H]1n1cc(-c2ccccc2)c2c(Nc3ccc(F)cc3)ncnc21 [compound 28]
Adenosine kinase
  IC50: 28 nM
Rats; i.p., 30 min before carrageenan
  Carrageenan Paw (% inh) i.p.: 52%
Rats; p.o., 1 h before carrageenan
  Carrageenan Paw (% inh) p.o.: 25%
Male Lewis rats; [1]
  % inh at day 12 (paw swelling): 29 ± 7%
  % inh at day 15 (paw swelling): 22 ± 4%
Male Lewis rats; [2]
  % inh at day 12 (paw swelling): 52 ± 23%
  % inh at day 15 (paw swelling): 52 ± 22%
  % inh at day 20 (paw swelling): 40 ± 8%
Rats (male, Simonsen); 1.7-5 min post-formalin
  % Inhibition Phase 1 Composite score: 9.2%
Rats (male, Simonsen); 10.3-30 min post-formalin
  % Inhibition Phase 2 Composite score: 37.4%
Rats (male, Simonsen); Phase 2
  % Inhibition Phase 2. Licking/biting: 76.1%
Male SA rats
  ED50 at 5 mg/kg: < 5 mg/kg
Female SA rats
  average serum Total Bilirubin: 0.07
  average serum content of SGOT: 61
  average serum content of SGPT: 23
